Entries after “also recorded” stand apart in the source; their conditions may differ.
Experiments:
Sprague-Dawley rats [1] = assay: Minimizing hemodynamic effects: antagonist pretreatments before IP CHA/CPA, rats on 4° C. cooled surface
Procedure: Fifteen different treatment combinations were administered to five male Sprague-Dawley rats with an average age of 314±88 days and weight of 453±44 g (mean±SD) in a modified cross over design as shown in Table 1). […] A washout period of at least one week was allowed between treatments. One hour of baseline data (body temperature, blood pressure, heart rate, and metabolism) was acquired before treatment. Rats received either a single IP injection of CHA or were pre-treated with antagonists 15 or 30 minutes prior to CHA drugs and were then placed on a 4° C. cooled surface (previously described Laughlin et al; herein incorporated by reference). Surface temperature was manually adjusted to prevent body temperature from falling below 32° C.
The pressure transducer was cannulated into the descending abdominal aorta.
Rats were placed inside a 12″×12″ clear acrylic box without bedding sitting on top of a custom built, aluminum hydronic surface. The aluminum surface was part of a cooling and heating system controlled by a thermostat in which circulating water was heated or cooled via thermoelectric Peltier plates and pumped through the aluminum cage floor. […] Food and water was provided ad libitum. The vascular access button was attached to a tether and swivel (Instech, VAHD115T, 375/D/22, Plymouth Meeting, Pa.) connected to a counter balance arm to provide freedom of movement.

Sprague-Dawley rats [2] = assay: 8-SPT dose determination (IV): atropine and 8-SPT bolus before CHA loading dose and infusion, 4° C. cooled surface; format: in vivo, rat; details: Atropine 1 mg/kg and SPT 10, 15 or 25 mg/kg (all doses) 15 min before CHA 1 mg/kg bolus, 0.25 mg/(kg·h) IV; n=5
Procedure: To define the dose-response relationship between 8-SPT combined with a constant concentration of atropine and CHA, three drug treatment combinations with varying doses of 8-SPT were tested. […] One hour of baseline data (body temperature, blood pressure, heart rate, and metabolism) were acquired before treatment. Rats received IV bolus of Atropine and 8-SPT 15 minutes before CHA. An IV loading dose of CHA was administered followed by a two hour continuous infusion of CHA. Rats were placed on a 4° C. cooled surface (previously described Laughlin et al). Surface temperature was manually adjusted to prevent body temperature from falling below 32° C.
Rats were placed inside a 12″×12″ clear acrylic box without bedding sitting on top of a custom built, aluminum hydronic surface. The aluminum surface was part of a cooling and heating system controlled by a thermostat in which circulating water was heated or cooled via thermoelectric Peltier plates and pumped through the aluminum cage floor. […] Food and water was provided ad libitum.

[3] = 8-SPT 25 mg/kg 15 min before CHA (S15C), n=4-5
[4] = 8-SPT 25 mg/kg administered 30 min after CHA 1 mg/kg, n=4-5

CN1C2CCC1CC(OC(=O)C(CO)c1ccccc1)C2 (centres unmarked) [Atropine, atropine]
prevention of CHA induced hypotension (Sprague-Dawley rats [1]; rat, in vivo): not sufficient; also recorded: does not prevent

CN(C)CCOC(c1ccccc1)c1ccccc1 [diphenhydramine]
prevention of hypotension (Sprague-Dawley rats [1]; diphenhydramine 4 mg/kg alone 30 min before CHA 1 mg/kg (D30C), n=3-5): not sufficient

OC[C@H]1O[C@@H](n2cnc3c(NC4CCCCC4)ncnc32)[C@H](O)[C@@H]1O [CHA, N6-Cyclohexyladenosine]
blood pressure effect of the agonist alone (Sprague-Dawley rats [1]; 1 mg/kg at time point zero, n=4-5): hypotension

Cn1c(=O)c2[nH]c(-c3ccc(S(=O)(=O)O)cc3)nc2n(C)c1=O [8-SPT, 8-(p-sulfophenyl) theophylline]
CHA induced hypotension (Sprague-Dawley rats [2]): effectively blocked | effect on heart rate compared to CHA 1 mg/kg alone (Sprague-Dawley rats [1]; [3]): minimal effect | effect on mean arterial pressure compared to CHA 1 mg/kg alone (Sprague-Dawley rats [1]; [3]): minimal effect | core body temperature (Sprague-Dawley rats [1]; [4]): increased significantly | heart rate (Sprague-Dawley rats [1]; [4]): increased significantly | mean arterial pressure (Sprague-Dawley rats [1]; [4]): increased significantly | oxygen consumption (Sprague-Dawley rats [1]; [4]): increased significantly | prevention of CHA induced hypotension (Sprague-Dawley rats [1]; 8-SPT 25 mg/kg alone 15 min before CHA 1 mg/kg (S15C), n=3-5): not sufficient | prevention of the initial drop in blood pressure or heart rate (hypotension) immediately following CHA administration (Sprague-Dawley rats [1]; 8-SPT alone (pretreatment), dose not stated): cannot prevent; also recorded: not sufficient | increase of blood pressure (Sprague-Dawley rats [1]; 8-SPT alone, after metabolic suppression is stabilized): sufficient

CC(C)NCC(O)COc1cccc2ccccc12 (centres unmarked) [propranolol]
prevention of hypotension (Sprague-Dawley rats [1]; propranolol 4 mg/kg alone 15 min before CHA 1 mg/kg (P15C), n=3-5): not sufficient

Reference: US11911408B2, “Synergistic formulations of adenosine receptor modulating agents and anticholinergics” (UNIVERSITY OF ALASKA FAIRBANKS, priority 2021, dated 2024)
